Results: patent US11760722B2 (priority 2022, dated 2023)
pEC50, pIC50: −log10 of the molar value.

Key:
COVID-19 WT Mpro = biological target: T1, COVID-19 WT Mpro (Severe acute respiratory syndrome coronavirus 2, UniProt P0DTD1); assay: biochemical; conditions: WT Mpro 25 nM, substrate 25 μM, 30 min pre-incubation; several values in a cell = repeat determinations
T1 construct: The C-His6-tagged COVID-19 WT Mpro (NC_045512); His6 (C); host or cells: E. coli

[1] = test system: human coronavirus (HCoV) 229E; assay: microbe, parasite or virus in culture; assay type: cell-based, human coronavirus 229E; conditions: unidentified human coronavirus, 72 h, MRCS cells, HCoV 229E, 3 days, CellTiter Glo; read-out: 229E CPE EC50
Experimental: Test compounds were provided by the sponsor. Reference compound remdesivir was provided by WuXi AppTec. Compounds were assayed at 8 concentrations (to be defined by sponsor), in duplicate wells.
MRCS cells were obtained from the ATCC, and maintained in the Minimum Essential Medium supplemented with 10% FBS, 1% L-glutamine, 1% NEAA and 1% penicillin-streptomycin. Minimum Essential Medium supplemented with 5% FBS, 1% L-glutamine, 1% NEAA and 1% penicillin-streptomycin was used as the assay medium.
Cells were seeded in 96 well plates, in 100 μl per well of assay medium, and cultured at 37° C. and 5% CO2 overnight. Next day, test compound was diluted with assay medium and then added into the cells, 50 μl per well. Then 50 μl per well of assay medium diluted virus was added. The final volume of the cell culture was 200 μl per well. […] The CPE were measured by CellTiter Glo following the manufacturer's manual. The antiviral activity of compounds was calculated based on the protection of the virus-induced CPE at each concentration normalized by the virus control.
EC50 and CC50 values were calculated using the GraphPad Prism software using the nonlinear regression model of log(inhibitor) vs. response—Variable slope (four parameters).

SARS-CoV-2 replicon = assay: microbe, parasite or virus in culture; assay type: cell-based; conditions: Severe acute respiratory syndrome coronavirus 2, Huh-7, 24 h; read-out: Replicon EC50

CC(C)(C)[C@H](NC(=O)c1nc2ccccc2[nH]1)C(=O)N1C[C@H]2[C@@H]([C@H]1C(=O)N[C@H](C#N)C[C@@H]1CCNC1=O)C2(C)C [Compound 41]
pIC50 (COVID-19 WT Mpro): 5.10
pEC50 [1]: < 4.52
pEC50 (SARS-CoV-2 replicon): < 4.52
